Key:
[1] = molecular target: T1, PYR1 K59R E94D (Arabidopsis thaliana, UniProt O49686, E94D/K59R); test: Y2H Pocket Library Screen (HAB1, X-gal); assay type: cell-based
T1 construct: expressed in transfected cells; host or cells: S. cerevisiae Y190 yeast two-hybrid reporter strain
Outline: (§1)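 PYR1 mutant bait plasmids were co-transformed with pACT-HAB1 into yeast Y190 and spotted on selective synthetic dextrose (–Leu/–Trp) agar containing one test compound at 100 μM. After two days at 30° C, colonies were chloroform-lysed and X-gal stained for β-galactosidase reporter expression.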

[2] = molecular target: T2, PYR1 K59R M158C (Arabidopsis thaliana, UniProt O49686, K59R/M158C); test: Y2H Pocket Library Screen (HAB1, X-gal); assay type: cell-based
T2 construct: expressed in transfected cells; host or cells: S. cerevisiae Y190 two-hybrid reporter strain
Outline: as §1

[3] = molecular target: T3, PYR1 K59R V164M (Arabidopsis thaliana, UniProt O49686, K59R/V164M); test: Y2H Pocket Library Screen (HAB1, X-gal); assay type: cell-based
T3 construct: expressed in transfected cells; host or cells: S. cerevisiae Y190
Outline: as §1

[4] = molecular target: T4, PYR1 K59R N167D (Arabidopsis thaliana, UniProt O49686, K59R/N167D); test: Y2H Pocket Library Screen (HAB1, X-gal); assay type: cell-based
T4 construct: expressed in transfected cells; host or cells: S. cerevisiae Y190 two-hybrid reporter strain
Outline: as §1

[5] = molecular target: T5, PYR1 K59R A160Y (Arabidopsis thaliana, UniProt O49686, A160Y/K59R); test: Y2H Pocket Library Screen (HAB1, X-gal); assay type: cell-based
T5 construct: expressed in transfected cells; host or cells: S. cerevisiae Y190
Outline: as §1

[6] = molecular target: T6, PYR1 K59R M158I (Arabidopsis thaliana, UniProt O49686, K59R/M158I); test: Y2H Pocket Library Screen (HAB1, X-gal); assay type: cell-based
T6 construct: expressed in transfected cells; host or cells: S. cerevisiae Y190 two-hybrid reporter strain
Outline: as §1

[7] = molecular target: T7, PYR1 K59R E141F (Arabidopsis thaliana, UniProt O49686, E141F/K59R); test: Y2H Pocket Library Screen (HAB1, X-gal); assay type: cell-based
T7 construct: expressed in transfected cells; host or cells: S. cerevisiae Y190 two-hybrid reporter strain
Outline: as §1

[8] = test system: PYR1^MANDI transgenic plants (E15, E16, F29, F34); test: progressive water loss regime (drought); assay type: in vivo, Arabidopsis; conditions: 2 μM mandipropamid, repeated 4 days later; day 11
Description: Treatment of plants with ABA delays water loss and additionally improves the ability of plants to recover from drought. We therefore examined the behavior of wild type, 35S::GFP-PYR and 4 homozygous PYR1^MANDI expressing transgenic plants (E15, E16, F29 and F34) during a progressive water loss regime. […] Plants were grown for three weeks in pots containing the same mass of soil and receiving the same amount of water at each watering. At three weeks after germination, regular watering of the plants was ceased and plants were treated with mock or 2 μM mandipropamid. These treatments were repeated 4 days later. Plants were photographed at 1, 10 and 11 days after initiation of water deprivation. As is evident from FIG. 6, by day 10 mock treated plants display evidence of water stress as indicated by collapsed leaves, by day 11 all mock treated plants have experienced severe desiccation. […] This is also observed for wild type and 35S::GFP-PYR plants treated with mandipropamid at day 10. […] This is in contrast to wild type and 35S::GFP-PYR1 control plants treated with mandipropamid and all mock treated lines. Thus, mandipropamid is able to improve drought stress tolerance in PYR1^MANDI expressing transgenic plants. The beneficial effects of mandipropamid are restricted to PYR1^MANDI expressing transgenic plants.

[9] = molecular target: T8, PYR1 K59R F108A S122G F159M (Arabidopsis thaliana, UniProt O49686, F108A/F159M/K59R/S122G); test: Y2H NNK Mutagenesis (HAB1, X-gal); assay type: cell-based
T8 construct: expressed in transfected cells; host or cells: S. cerevisiae Y190 pACT-HAB1
Description: (§2) The preceding efforts identified PYR1^K59R,F108A,S122G, which is responsive to mandipropamid concentrations as low as 1 μM. We next attempted to improve the mandipropamid receptor by screening for additional pocket-located mutations that improve compound responsiveness. We subjected PYR1^K59R,F108A,S122G to two separate mutagenesis experiments. We first examined the effects of adding single additional mutations at each of the other 23 ligand-contacting residues that are not altered in the PYR1^K59R,F108A,S122G backbone, using NNK codon-randomization primers. Each NNK primer was used to generate a pool of PYR1^K59R,F108A,S122G receptors containing additional mutations at a single ligand-contacting residue. DNA for this mutant pool was prepared and then transformed into a pACT-HAB1 MAV99 reporter strain, which allows URA3 based selection of active receptors (Peterson et al., 2010). The pooled yeast cells were plated on media containing 0.5 μM mandipropamid, a concentration too low to allow growth of a control MAV99 pACT-HAB1 reporter strain expressing pBD-PYR1^K59R,F108A,S122G. […] Mutants enabling ligand-dependent interactions were sequenced and plasmid DNA for these mutants was isolated and introduced into Y190 pACT-HAB1 so that X-gal staining could be utilized to evaluate receptor sensitivity. This process was repeated for each of the remaining 22 NNK primers. These efforts yielded 10 mutations (V81C, V81I, V81T, V83L, L87A, F159L, F159M, F159V, A160V, V164I) that enhance the mandipropamid sensitivity of PYR1^K59R,F108A,S122G (see entries labeled “NNK Mutagenesis Screen” in Table 1).

[10] = molecular target: T9, PYR1 K59R F108A S122G V83L (Arabidopsis thaliana, UniProt O49686, F108A/K59R/S122G/V83L); test: Y2H NNK Mutagenesis (HAB1, X-gal); assay type: cell-based
T9 construct: expressed in transfected cells; host or cells: S. cerevisiae Y190 pACT-HAB1
Description: as §2

[11] = molecular target: T10, PYR1 K59R F108A S122G V81I (Arabidopsis thaliana, UniProt O49686, F108A/K59R/S122G/V81I); test: Y2H NNK Mutagenesis (HAB1, X-gal); assay type: cell-based
T10 construct: expressed in transfected cells; host or cells: S. cerevisiae Y190 pACT-HAB1
Description: as §2

[12] = molecular target: T11, PYR1 K59R F108G (Arabidopsis thaliana, UniProt O49686, F108G/K59R); test: Y2H Pocket Library Screen (HAB1, X-gal); assay type: cell-based
T11 construct: expressed in transfected cells; host or cells: S. cerevisiae Y190 yeast two-hybrid reporter strain
Outline: as §1

[13] = molecular target: T12, PYR1 K59R F108T (Arabidopsis thaliana, UniProt O49686, F108T/K59R); test: Y2H Pocket Library Screen (HAB1, X-gal); assay type: cell-based
T12 construct: expressed in transfected cells; host or cells: S. cerevisiae Y190 yeast two-hybrid reporter strain
Outline: as §1

[14] = molecular target: T13, PYR1 K59R F108A (Arabidopsis thaliana, UniProt O49686, F108A/K59R); test: Y2H Pocket Library Screen (HAB1, X-gal); assay type: cell-based
T13 construct: expressed in transfected cells; host or cells: S. cerevisiae Y190 yeast two-hybrid reporter strain
Outline: as §1

T8 sequence (O49686 whole entry K59R/F108A/S122G/F159M): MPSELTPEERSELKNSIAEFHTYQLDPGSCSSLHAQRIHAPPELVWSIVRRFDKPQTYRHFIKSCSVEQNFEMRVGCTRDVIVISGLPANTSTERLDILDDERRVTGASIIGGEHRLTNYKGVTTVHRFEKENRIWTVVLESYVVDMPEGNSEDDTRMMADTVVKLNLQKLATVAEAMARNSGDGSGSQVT
T8 sequence (Q9CAJ0 23-511 partner): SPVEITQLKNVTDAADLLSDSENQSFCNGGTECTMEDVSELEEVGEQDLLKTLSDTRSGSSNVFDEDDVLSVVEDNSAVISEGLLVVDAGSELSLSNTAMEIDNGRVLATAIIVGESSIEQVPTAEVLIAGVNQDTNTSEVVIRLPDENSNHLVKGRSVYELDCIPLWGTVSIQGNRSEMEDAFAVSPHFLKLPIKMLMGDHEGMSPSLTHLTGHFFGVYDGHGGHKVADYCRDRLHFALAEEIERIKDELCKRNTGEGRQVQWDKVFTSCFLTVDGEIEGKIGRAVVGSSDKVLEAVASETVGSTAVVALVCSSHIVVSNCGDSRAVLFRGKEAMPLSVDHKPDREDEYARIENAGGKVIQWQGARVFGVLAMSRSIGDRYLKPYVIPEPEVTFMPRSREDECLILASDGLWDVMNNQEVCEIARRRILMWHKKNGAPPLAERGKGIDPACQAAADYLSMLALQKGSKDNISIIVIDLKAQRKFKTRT
T3 sequence (O49686 whole entry K59R/V164M): as the sequence (O49686 whole entry K59R/F108A/S122G/F159M) above, with A108F, G122S, M159F, V164M counted along it
T3 sequence (Q9CAJ0 23-511 partner): as the sequence (Q9CAJ0 23-511 partner) above
T12 sequence (O49686 whole entry K59R/F108T): as the sequence (O49686 whole entry K59R/F108A/S122G/F159M) above, with A108T, G122S, M159F counted along it
T12 sequence (Q9CAJ0 23-511 partner): as the sequence (Q9CAJ0 23-511 partner) above
T4 sequence (O49686 whole entry K59R/N167D): as the sequence (O49686 whole entry K59R/F108A/S122G/F159M) above, with A108F, G122S, M159F, N167D counted along it
T4 sequence (Q9CAJ0 23-511 partner): as the sequence (Q9CAJ0 23-511 partner) above
T5 sequence (O49686 whole entry K59R/A160Y): as the sequence (O49686 whole entry K59R/F108A/S122G/F159M) above, with A108F, G122S, M159F, A160Y counted along it
T5 sequence (Q9CAJ0 23-511 partner): as the sequence (Q9CAJ0 23-511 partner) above
T11 sequence (O49686 whole entry K59R/F108G): as the sequence (O49686 whole entry K59R/F108A/S122G/F159M) above, with A108G, G122S, M159F counted along it
T11 sequence (Q9CAJ0 23-511 partner): as the sequence (Q9CAJ0 23-511 partner) above
T6 sequence (O49686 whole entry K59R/M158I): as the sequence (O49686 whole entry K59R/F108A/S122G/F159M) above, with A108F, G122S, M158I, M159F counted along it
T6 sequence (Q9CAJ0 23-511, further chain): as the sequence (Q9CAJ0 23-511 partner) above
T7 sequence (O49686 whole entry K59R/E141F): as the sequence (O49686 whole entry K59R/F108A/S122G/F159M) above, with A108F, G122S, E141F, M159F counted along it
T7 sequence (Q9CAJ0 23-511 partner): as the sequence (Q9CAJ0 23-511 partner) above
T1 sequence (O49686 whole entry K59R/E94D): as the sequence (O49686 whole entry K59R/F108A/S122G/F159M) above, with E94D, A108F, G122S, M159F counted along it
T1 sequence (Q9CAJ0 23-511 partner): as the sequence (Q9CAJ0 23-511 partner) above
T13 sequence (O49686 whole entry K59R/F108A): as the sequence (O49686 whole entry K59R/F108A/S122G/F159M) above, with G122S, M159F counted along it
T13 sequence (Q9CAJ0 23-511 partner): as the sequence (Q9CAJ0 23-511 partner) above
T9 sequence (O49686 whole entry K59R/V83L/F108A/S122G): as the sequence (O49686 whole entry K59R/F108A/S122G/F159M) above, with V83L, M159F counted along it
T9 sequence (Q9CAJ0 23-511 partner): as the sequence (Q9CAJ0 23-511 partner) above
T2 sequence (O49686 whole entry K59R/M158C): as the sequence (O49686 whole entry K59R/F108A/S122G/F159M) above, with A108F, G122S, M158C, M159F counted along it
T2 sequence (Q9CAJ0 23-511, further chain): as the sequence (Q9CAJ0 23-511 partner) above
T10 sequence (O49686 whole entry K59R/V81I/F108A/S122G): as the sequence (O49686 whole entry K59R/F108A/S122G/F159M) above, with V81I, M159F counted along it
T10 sequence (Q9CAJ0 23-511 partner): as the sequence (Q9CAJ0 23-511 partner) above

Structure (SMILES) | Threshold [1] [µM] | Threshold [2] [µM] | Threshold [3] [µM] | Threshold [4] [µM] | Threshold [5] [µM] | Threshold [6] [µM] | Threshold [7] [µM] | desiccation during water deprivation [8] | Threshold [9] [µM] | Threshold [10] [µM] | Threshold [11] [µM] | Threshold [12] [µM] | Threshold [13] [µM] | Threshold [14] [µM]
N#Cc1c(Cl)cccc1Cl [Dichlobenil, dichlobenil] | 100 | 100 | 100 | 100 | 100 | 100 | 100 |  |  |  |  |  |  | 
C#CCOc1ccc(CCNC(=O)C(OCC#C)c2ccc(Cl)cc2)cc1OC (centres unmarked) [Mandipropamid, mandipropamid] |  |  |  |  |  |  |  | not desiccated | 0.25 | 0.05 | 0.25 | 100 | 100 | 100
